Test results as given in patent publication US20050197350A1, “Novel quinoline, tetrahydroquinazoline, and pyrimidine derivatives and methods of treatment related to the use thereof” (TAISHO PHARMACEUTICAL CO., LTD., priority 2003, published 2005).

What follows are molecules tested on MCH receptors (assay: MCH receptor activity class (method not given)). Conditions: MCH receptor; class by percent of control at 10^-7 M or IC50.

Molecule | class
CCC(Oc1ccccc1)C(=O)N[C@H]1CC[C@@H](Nc2cc(N(C)C)c3ccccc3n2)CC1 (relative stereo) [compound 48, N-(cis-4-{[4-(dimethylamino)quinolin-2-yl]amino}cyclohexyl)-2-phenoxybutanamide] | 1 (Class 1: The value of percent of control at 10^−7 M was less than 40% or the value of IC50 was less than 50 nM.)
CC(Oc1ccccc1)C(=O)N[C@H]1CC[C@@H](Nc2cc(N(C)C)c3ccccc3n2)CC1 (relative stereo) [compound 49, N-(cis-4-{[4-(dimethylamino)quinolin-2-yl]amino}cyclohexyl)-2-phenoxypropanamide] | 1 (Class 1: The value of percent of control at 10^−7 M was less than 40% or the value of IC50 was less than 50 nM.)
CCC(C(=O)N[C@H]1CC[C@@H](Nc2cc(N(C)C)c3ccccc3n2)CC1)c1ccccc1 (relative stereo) [compound 66] | 3 (Class 3 The value of percent of control at 10^−7 M was more than 60% or the value of IC50 was more than 200 nM.)
CC(=O)OC(C(=O)N[C@H]1CC[C@@H](Nc2cc(N(C)C)c3ccccc3n2)CC1)c1ccccc1 (relative stereo) [compound 92] | 3 (Class 3 The value of percent of control at 10^−7 M was more than 60% or the value of IC50 was more than 200 nM.)
CCC(Oc1ccccc1)C(=O)NC[C@H]1CC[C@@H](Nc2cc(N(C)C)c3ccccc3n2)CC1 (relative stereo) [compound 175, N-[(cis-4-{[4-(dimethylamino)quinolin-2-yl]amino}cyclohexyl)methyl]-2-phenoxybutanamide] | 3 (Class 3 The value of percent of control at 10^−7 M was more than 60% or the value of IC50 was more than 200 nM.)
CC(Oc1ccccc1)C(=O)NC[C@H]1CC[C@@H](Nc2cc(N(C)C)c3ccccc3n2)CC1 (relative stereo) [compound 176, N-[(cis-4-{[4-(dimethylamino)quinolin-2-yl]amino}cyclohexyl)methyl]-2-phenoxypropanamide] | 3 (Class 3 The value of percent of control at 10^−7 M was more than 60% or the value of IC50 was more than 200 nM.)
CCC(C(=O)NC[C@H]1CC[C@@H](Nc2cc(N(C)C)c3ccccc3n2)CC1)c1ccccc1 (relative stereo) [compound 193] | 3 (Class 3 The value of percent of control at 10^−7 M was more than 60% or the value of IC50 was more than 200 nM.)

Same assay, conditions: class 1-3 by percent of control at 10^-7 M or IC50

Molecule | class
CCC(Oc1ccccc1)C(=O)N[C@H]1CC[C@@H](Nc2nc3c(c(N(C)C)n2)CCCC3)CC1 (relative stereo) [compound 484] | 1 (Class 1: The value of percent of control at 10^−7 M was less than 40% or the value of IC50 was less than 50 nM.)
CC(Oc1ccccc1)C(=O)N[C@H]1CC[C@@H](Nc2nc3c(c(N(C)C)n2)CCCC3)CC1 (relative stereo) [compound 485] | 1 (Class 1: The value of percent of control at 10^−7 M was less than 40% or the value of IC50 was less than 50 nM.)
CCC(C(=O)N[C@H]1CC[C@@H](Nc2nc3c(c(N(C)C)n2)CCCC3)CC1)c1ccccc1 (relative stereo) [compound 502] | 3 (Class 3 The value of percent of control at 10^−7 M was more than 60% or the value of IC50 was more than 200 nM.)
CC(=O)OC(C(=O)N[C@H]1CC[C@@H](Nc2nc3c(c(N(C)C)n2)CCCC3)CC1)c1ccccc1 (relative stereo) [compound 528] | 1 (Class 1: The value of percent of control at 10^−7 M was less than 40% or the value of IC50 was less than 50 nM.)

Same assay, conditions: class by percent of control at 10^-7 M or IC50

Molecule | class
4-({[(cis-4-{[4-(dimethylamino)pyrimidin-2-yl]amino}-cyclohexyl)methyl]amino}methyl)-2,6-dimethoxyphenol [compound 1254] | 1 (Class 1: The value of percent of control at 10^−7 M was less than 40% or the value of IC50 was less than 50 nM.)
CCC(Oc1ccccc1)C(=O)N[C@H]1CC[C@@H](Nc2nccc(N(C)C)n2)CC1 (relative stereo) [compound 266, N-(cis-4-{[4-(dimethylamino)pyrimidin-2-yl]amino}cyclohexyl)-2-phenoxybutanamide] | 2 (Class 2: The value of percent of control at 10^−7 M was from 40% to 60% or the value of IC′50 was from 50 nM to 200 nM.)
CC(Oc1ccccc1)C(=O)N[C@H]1CC[C@@H](Nc2nccc(N(C)C)n2)CC1 (relative stereo) [compound 267] | 3 (Class 3 The value of percent of control at 10^−7 M was more than 60% or the value of IC50 was more than 200 nM.)
CCC(C(=O)N[C@H]1CC[C@@H](Nc2nccc(N(C)C)n2)CC1)c1ccccc1 (relative stereo) [compound 284] | 3 (Class 3 The value of percent of control at 10^−7 M was more than 60% or the value of IC50 was more than 200 nM.)
CC(=O)OC(C(=O)N[C@H]1CC[C@@H](Nc2nccc(N(C)C)n2)CC1)c1ccccc1 (relative stereo) [compound 310] | 3 (Class 3 The value of percent of control at 10^−7 M was more than 60% or the value of IC50 was more than 200 nM.)
CCC(Oc1ccccc1)C(=O)NC[C@H]1CC[C@@H](Nc2nccc(N(C)C)n2)CC1 (relative stereo) [compound 393, N-[(cis-4-{[4-(dimethylamino)pyrimidin-2-yl]amino}cyclohexyl)methyl]-2-phenoxybutanamide] | 2 (Class 2: The value of percent of control at 10^−7 M was from 40% to 60% or the value of IC′50 was from 50 nM to 200 nM.)
CC(Oc1ccccc1)C(=O)NC[C@H]1CC[C@@H](Nc2nccc(N(C)C)n2)CC1 (relative stereo) [compound 394] | 3 (Class 3 The value of percent of control at 10^−7 M was more than 60% or the value of IC50 was more than 200 nM.)
CCC(C(=O)NC[C@H]1CC[C@@H](Nc2nccc(N(C)C)n2)CC1)c1ccccc1 (relative stereo) [compound 411, N-[(cis-4-{[4-(dimethylamino)pyrimidin-2-yl]amino}cyclohexyl)methyl]-2-phenylbutanamide] | 1 (Class 1: The value of percent of control at 10^−7 M was less than 40% or the value of IC50 was less than 50 nM.)
CCC(Oc1ccccc1)C(=O)NC[C@H]1CC[C@@H](Nc2nc3c(c(N(C)C)n2)CCCC3)CC1 (relative stereo) [compound 610] | 3 (Class 3 The value of percent of control at 10^−7 M was more than 60% or the value of IC50 was more than 200 nM.)
CC(Oc1ccccc1)C(=O)NC[C@H]1CC[C@@H](Nc2nc3c(c(N(C)C)n2)CCCC3)CC1 (relative stereo) [compound 611] | 3 (Class 3 The value of percent of control at 10^−7 M was more than 60% or the value of IC50 was more than 200 nM.)
CCC(C(=O)NC[C@H]1CC[C@@H](Nc2nc3c(c(N(C)C)n2)CCCC3)CC1)c1ccccc1 (relative stereo) [compound 628] | 3 (Class 3 The value of percent of control at 10^−7 M was more than 60% or the value of IC50 was more than 200 nM.)
CN(C)c1cc(N[C@H]2CC[C@@H](NC(=O)C(Cc3ccccc3)c3ccccc3)CC2)nc2ccccc12 (relative stereo) [compound 678] | 3 (Class 3 The value of percent of control at 10^−7 M was more than 60% or the value of IC50 was more than 200 nM.)
CN(C)c1cc(N[C@H]2CC[C@@H](NC(=O)C3CC(=O)c4ccccc43)CC2)nc2ccccc12 (relative stereo) [compound 684] | 3 (Class 3 The value of percent of control at 10^−7 M was more than 60% or the value of IC50 was more than 200 nM.)
